From ChEMBL document CHEMBL1201862, “PubChem BioAssay data set” (2004)
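Values below derive from 48-hour exposures of cells grown in 96-well plates, with endpoints linearly interpolated between the two concentrations bracketing the appropriate inhibition level. GI50 = concentration required for 50% inhibition of growth.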 Active and inactive are the calls of the source. No stated cut-off is given here; in the data, active = GI50 up to about 1.1 µM and inactive = higher. *1 amine or outer side, *2 acyl side, *3 side chain or, on linkers, in order; H or OH if unused. Where a SMILES comes first, the peptide text is derived from it. [ ]: non-standard residue; d: D form. The star is where a group is joined. X31 = CC(=O)N(C)SCC(N[*:1])C(=O)[*:2]; Fmoc = O=C(OCC1c2ccccc2-c2ccccc21)*; For = O=C*

Experiments:
Test in all cases: NCI tumour cell line growth inhibition, 48 h
[1] = test system: A549
[2] = test system: ACHN
[3] = test system: BT-549
[4] = test system: HL-60
[5] = test system: HOP-92
[6] = test system: KM12
[7] = test system: LOX IMVI
[8] = test system: MDA-N
[9] = test system: NCI-H226
[10] = test system: PC-3
[11] = test system: RPMI-8226
[12] = test system: RXF 393
[13] = test system: SK-MEL-28
[14] = test system: SK-MEL-2
[15] = test system: SNB-75
[16] = test system: SW-620
[17] = test system: T47D
[18] = test system: U-251
[19] = test system: UACC-62
[20] = test system: KM-20L2

For `COc1ccccc1NC1=NCC(C)S1` (centres undefined), the GI50 [1] was > 100 µM (inactive), the GI50 [2] was > 100 µM (inactive) and the GI50 [3] was > 100 µM (inactive). The GI50 [4] was > 100 µM (inactive), the GI50 [5] was > 100 µM (inactive) and the GI50 [6] was > 100 µM (inactive). The GI50 [7] was > 100 µM (inactive), the GI50 [8] was > 100 µM (inactive) and the GI50 [9] was > 100 µM (inactive). The GI50 [10] was > 100 µM (inactive), the GI50 [11] was > 100 µM (inactive) and the GI50 [12] was 33.8 µM (inactive). For the same molecule, the GI50 [13] was > 100 µM (inactive), the GI50 [14] was > 100 µM (inactive) and the GI50 [15] was > 100 µM (inactive). For the same molecule, the GI50 [16] was > 100 µM (inactive), the GI50 [17] was > 100 µM (inactive) and the GI50 [18] was > 100 µM (inactive). For the same molecule, the GI50 [19] was > 100 µM (inactive).

`COC(=O)[C@]1(c2cc3ccccc3n2S(=O)(=O)c2ccccc2)CC2CN(C(C)=O)C1CC2=O` (some centres undefined) was tested, and the GI50 [1] was 3.05 µM (inactive), the GI50 [2] was 1.91 µM (inactive) and the GI50 [3] was 2.61 µM (inactive). For the same molecule, the GI50 [4] was 1.34 µM (inactive), the GI50 [5] was 5.52 µM (inactive) and the GI50 [6] was 2.69 µM (inactive). The GI50 [7] was 1.9 µM (inactive), the GI50 [8] was 2.79 µM (inactive) and the GI50 [9] was 2.17 µM (inactive). For the same molecule, the GI50 [10] was 1.64 µM (inactive), the GI50 [11] was 0.65 µM (active) and the GI50 [12] was 1.77 µM (inactive). For the same molecule, the GI50 [13] was 3.94 µM (inactive), the GI50 [14] was 2.77 µM (inactive) and the GI50 [15] was 3.15 µM (inactive). For the same molecule, the GI50 [16] was 1.94 µM (inactive), the GI50 [17] was 2.16 µM (inactive) and the GI50 [18] was 1.6 µM (inactive). The GI50 [19] was 1.67 µM (inactive).

With `COC(=O)Nc1nc2cc(S(=O)(=O)Nc3ccccn3)ccc2[nH]1` the GI50 [1] was 80.7 µM (inactive), the GI50 [2] was 63 µM (inactive) and the GI50 [3] was 30.9 µM (inactive). The GI50 [4] was 10.8 µM (inactive), the GI50 [5] was 30.5 µM (inactive) and the GI50 [6] was 32.1 µM (inactive). For the same molecule, the GI50 [7] was 51.8 µM (inactive), the GI50 [8] was 20.7 µM (inactive) and the GI50 [9] was 36.3 µM (inactive). For the same molecule, the GI50 [10] was 65.8 µM (inactive), the GI50 [11] was 14 µM (inactive) and the GI50 [12] was 39.6 µM (inactive). The GI50 [13] was 14.4 µM (inactive), the GI50 [14] was > 100 µM (inactive) and the GI50 [15] was 22.6 µM (inactive). The GI50 [16] was 17.1 µM (inactive), the GI50 [17] was 44.2 µM (inactive) and the GI50 [18] was 67.5 µM (inactive). The GI50 [19] was 42.6 µM (inactive).

With `O=C1OC(c2ccccc2)=N/C1=C/NC(Cc1ccccc1)C(=O)O` (centres undefined) the GI50 [1] was > 100 µM (inactive), the GI50 [2] was > 100 µM (inactive) and the GI50 [4] was > 100 µM (inactive). For the same molecule, the GI50 [20] was > 100 µM (inactive), the GI50 [6] was > 100 µM (inactive) and the GI50 [7] was > 100 µM (inactive). The GI50 [9] was > 100 µM (inactive), the GI50 [11] was > 100 µM (inactive) and the GI50 [12] was > 100 µM (inactive). The GI50 [13] was > 100 µM (inactive), the GI50 [14] was > 100 µM (inactive) and the GI50 [15] was 50.8 µM (inactive). For the same molecule, the GI50 [16] was > 100 µM (inactive), the GI50 [18] was > 100 µM (inactive) and the GI50 [19] was > 100 µM (inactive).

In the case of `CC1(C)CCCCCCC2OC2CCCCCC(C)(C)C1=O` (centres undefined), the GI50 [1] is reported as 39.3 µM (inactive), the GI50 [2] is reported as 30.8 µM (inactive) and the GI50 [3] is reported as 27.5 µM (inactive). The GI50 [4] was 22.4 µM (inactive), the GI50 [5] was 27 µM (inactive) and the GI50 [6] was 27.8 µM (inactive). The GI50 [7] was > 67.8 µM (inactive), the GI50 [8] was 35.8 µM (inactive) and the GI50 [9] was > 56.4 µM (inactive). The GI50 [10] was 35.1 µM (inactive), the GI50 [11] was 32.5 µM (inactive) and the GI50 [12] was 20.1 µM (inactive). The GI50 [13] was 65.2 µM (inactive), the GI50 [14] was 31.8 µM (inactive) and the GI50 [15] was 28 µM (inactive). The GI50 [16] was 52.4 µM (inactive), the GI50 [17] was 29.9 µM (inactive) and the GI50 [18] was 24.3 µM (inactive). For the same molecule, the GI50 [19] was 19 µM (inactive).

In the case of `CC(C)=CCC[C@@H](C)C1=C(O)C(=O)C(C)=C(Nc2ccccc2)C1=O`, the GI50 [1] is reported as 16.9 µM (inactive), the GI50 [2] is reported as 13.5 µM (inactive) and the GI50 [3] is reported as 24.7 µM (inactive). For the same molecule, the GI50 [4] was 2.98 µM (inactive), the GI50 [5] was 23.5 µM (inactive) and the GI50 [6] was 22.8 µM (inactive). The GI50 [7] was 20.6 µM (inactive), the GI50 [8] was 28.4 µM (inactive) and the GI50 [9] was 26.7 µM (inactive). For the same molecule, the GI50 [10] was 23.9 µM (inactive), the GI50 [11] was 43.2 µM (inactive) and the GI50 [12] was 19.2 µM (inactive). The GI50 [13] was 43 µM (inactive), the GI50 [14] was 20.2 µM (inactive) and the GI50 [15] was 31.5 µM (inactive). The GI50 [16] was 22.8 µM (inactive), the GI50 [17] was 19.9 µM (inactive) and the GI50 [18] was 12.5 µM (inactive). For the same molecule, the GI50 [19] was 13 µM (inactive).

With `CC(=O)N(C)SCC(NC(=O)C(Cc1ccccc1)NC(=O)OCC1c2ccccc2-c2ccccc21)C(=O)NC(Cc1ccccc1)C(=O)NC(Cc1cn(C=O)c2ccccc12)C(=O)NC(CCCCNC(=O)OCC1c2ccccc2-c2ccccc21)C(=O)NC(C(=O)NC(CSN(C)C(C)=O)C(=O)NC(C(N)=O)C(C)O)C(C)O` (centres undefined) (Fmoc-F[X31]FW(For)K(Fmoc)T[X31]T-NH2; configuration not given here) the GI50 [1] was > 100 µM (inactive), the GI50 [2] was 37 µM (inactive) and the GI50 [3] was > 100 µM (inactive). The GI50 [4] was > 100 µM (inactive), the GI50 [5] was 14.5 µM (inactive) and the GI50 [6] was 19.8 µM (inactive). For the same molecule, the GI50 [7] was > 100 µM (inactive), the GI50 [8] was 36.7 µM (inactive) and the GI50 [9] was > 100 µM (inactive). For the same molecule, the GI50 [10] was 97.1 µM (inactive), the GI50 [11] was > 100 µM (inactive) and the GI50 [12] was 20.5 µM (inactive). The GI50 [13] was > 100 µM (inactive), the GI50 [14] was 40.6 µM (inactive) and the GI50 [15] was 33.1 µM (inactive). The GI50 [16] was > 100 µM (inactive), the GI50 [17] was > 100 µM (inactive) and the GI50 [18] was > 100 µM (inactive). The GI50 [19] was 58.6 µM (inactive).
